This is an account of results in US10471073B2, “Methods of reducing mammographic breast density and/or breast cancer risk” (Havah Therapeutics Pty Ltd., priority 2016, dated 2019).

Data set [1] deals with prostate specific antigen (PSA). Put plainly: IHC of high MBD breast tissue explants with columnar cell change: PSA. Format: cell-based, human. Conditions: for PSA, percentage of cell staining: 24 hours, E 5 nM, T 10 nM, G 100 nM, A 25 ng/L [sic]; for effect on PSA levels: tissue samples of both patients. The protocol:
(§1) The samples are transported on ice for Prostate-specific antigen (PSA) determination. […] PSA is detectable in greater than 90% of the nipple fluid aspirations of normal women. […] This area was removed and transported on ice to the laboratory for explant culture. […] A representative piece of each tissue sample was immediately fixed in 4% formalin in phosphate-buffered saline (PBS) overnight at 4° C., followed by dehydration using an automatic tissue processor (Sakura Tissue-Tek VIP, USA) and paraffin wax embedding. A haematoxylin and eosin (H&E) stained section was used to assess tissue pathology. Additional consecutive sections were subjected to antigen retrieval to assess androgen receptor levels by immunohistochemistry (IHC). The remaining fresh tissue was cut into small (˜3×3×1 mm) pieces, and placed as triplicates on 1 cm^3 gelatin sponges (Spongostan; Johnson & Johnson, Skipton, UK) that were pre-soaked and then half submerged in treatment media containing 10% by volume dextran-coated charcoal stripped fetal calf serum (DCC-FCS) (SAFC biosciences, Kansas, USA) in 24-well tissue culture plates (BD Biosciences, NJ, USA). The tissues samples of both patients were cultured for 24 hours in a vehicle of 0.1% by volume of ethanol and subjected to the treatments set forth in Table 17.
(§2) Following 24 hours culturing in a 5% by volume CO2 enriched atmosphere at 37° C., the treated tissues samples were processed for IHC analyses as indicated below. Established IHC protocols were used to determine hormone receptor androgen receptor status in the 4 tissue samples prior to culture. Following microwave antigen retrieval in […] (pH6.5) tissue sections were incubated at 4° C. overnight with primary antibody for androgen receptor, estrogen receptor and PSA. Negative controls were generated by replacement of the primary antibodies with PBS. Tissues were dehydrated in ethanol and xylene and mounted with DPX (VWR International Ltd, England, UK). Following staining, digital images of stained sections were generated with a NanoZoomer scanner (Hamamatsu, Japan) to enable analyses of % positivity in untreated tissues, using Visual Image Analysis software (Video Pro, South Australia). A pathologist undertook histological evaluation with 25 years experience in breast pathology.

In a further data set the test system is androgen receptor (AR). Nature of the data set: IHC of high MBD breast tissue explants with columnar cell change: androgen receptor. Conditions: for AR, percentage of cell staining: 24 hours, E 5 nM, T 10 nM, G 100 nM, A 25 ng/L [sic]; for effect on AR levels: tissue samples of both patients. The data set is classed as cell-based, human. The method, then: as §1, §2

The subject of the next data set is estrogen receptor (ER). Nature of the data set: IHC of high MBD breast tissue explants with columnar cell change: estrogen receptor. Format: cell-based, human. Conditions: 24 hours, E 5 nM, T 10 nM, G 100 nM, A 25 ng/L [sic]. The method, then: as §1, §2
The conditions of data set [2]: cited from earlier work.
A further data set has as its system person with macromastia. Nature of the data set: Macromastia: breast volume by water displacement. Format: in vivo, human. Conditions: tamoxifen and oral contraceptive therapy before the pellet.
A further data set deals with pre-menopausal person. Conditions: prior art; cited from earlier work.

Procedure for person with macromastia: The treatment consisted of testosterone 100 mg and anastrazole 3 mg compounded into a 4.5 mm pellet. The pellet was inserted into the subcutaneous fat of the lower abdominal wall.
Prior to treatment (Pre-treatment) the right and left breasts were separately placed in a calibrated bucket and the volume of displacement for each breast was measured. This was accomplished by submerging each breast until the breast was fully submerged but the water was not touching the chest wall. After one month of treatment the volume measurements were repeated using the same water displacement methodology. Fluid displacements were measured in mls.

As to `CC(C)(C#N)c1cc(Cn2cncn2)cc(C(C)(C)C#N)c1` [Anastrozole, 2,2′-[5-(1H-1,2,4-triazol-1-ylmethyl)-1,3-phenylene]bis(2-methylpropanenitrile)], the “PSA, percentage of cell staining” value in data set [1] (Patient 1 explant, vehicle 20%) is reported as 35%; in data set [1] (Patient 2 explant, vehicle […]%), 25%. For the same compound, the “effect on PSA levels” value in data set [1] is on record as “mild stimulatory effect”.

`C[C@]12CC[C@H]3[C@@H](CCC4=CC(=O)CC[C@@]43C)[C@@H]1CC[C@@H]2O` [Testosterone, testosterone]: the “AR, percentage of cell staining” value with androgen receptor (AR) (Patient 1 explant, vehicle […]%) is recorded as 35%; in the data set on androgen receptor (AR) (Patient 2 explant, vehicle 10%), 25%. In addition, the “effect on AR levels” value in the data set with androgen receptor (AR) is listed as “increased”. Further, the “ER, percentage of cell staining” value in the data set on estrogen receptor (ER) (Patient 1 explant, vehicle 90%) is given as 50%; with estrogen receptor (ER) (Patient 2 explant, vehicle 75%) it was 45%. Also, the “fraction broken down in the liver as it is absorbed from the gut” value in data set [2] (oral delivery) was 80-90%. The “fraction broken down in the intestines by aromatase and other metabolic pathways” value in data set [2] (oral) was “approximately 85%”. For the same compound, the “PSA, percentage of cell staining” value is on record as 65% in data set [1] (Patient 1 explant, vehicle 20%) and 45% in data set [1] (Patient 2 explant, vehicle […]%). In addition, the “effect on PSA levels” value in data set [1] is listed as “increased”.

`C[C@](O)(COc1ccc(C#N)cc1)C(=O)Nc1ccc(C#N)c(C(F)(F)F)c1` [GTx-024, (2S)-3-(4-cyanophenoxy)-N-[4-cyano-3-(trifluoromethyl)phenyl]-2-hydroxy-2-methylpropanamide]: the “AR, percentage of cell staining” value with androgen receptor (AR) (Patient 1 explant, vehicle […]%) is given as 45%; in the data set with androgen receptor (AR) (Patient 2 explant, vehicle 10%), 55%. In addition, the “effect on AR levels” value with androgen receptor (AR) is listed as “increased”. Moreover, the “ER, percentage of cell staining” value in the data set with estrogen receptor (ER) (Patient 1 explant, vehicle 90%) turned out to be 45%; in the data set with estrogen receptor (ER) (Patient 2 explant, vehicle 75%) it was 25%. Moreover, the “PSA, percentage of cell staining” value is given as 50% in data set [1] (Patient 1 explant, vehicle 20%) and 55% in data set [1] (Patient 2 explant, vehicle […]%). In data set [1], the “effect on PSA levels” value is reported as “increased”.

Regarding `CC/C(=C(\c1ccccc1)c1ccc(OCCN(C)C)cc1)c1ccccc1` [tamoxifen], the “breast growth in macromastia” value in the data set on person with macromastia is recorded as “failed to cease the breast growth”. For the same compound, the mammographic breast density result in the data set with pre-menopausal person is listed as “reduce”.

On to `C[C@]12CC[C@@H]3c4ccc(O)cc4CC[C@H]3[C@@H]1CC[C@@H]2O` [Estradiol, estradiol], for which the “AR, percentage of cell staining” value in the data set with androgen receptor (AR) (Patient 1 explant, vehicle […]%) is listed as 5%; in the data set on androgen receptor (AR) (Patient 2 explant, vehicle 10%) it was less than 5%. The “ER, percentage of cell staining” value with estrogen receptor (ER) (Patient 1 explant, vehicle 90%) is more than 95%; in the data set on estrogen receptor (ER) (Patient 2 explant, vehicle 75%), more than 95%. In addition, the “PSA, percentage of cell staining” value is 5% in data set [1] (Patient 1 explant, vehicle 20%) and less than 5% in data set [1] (Patient 2 explant, vehicle […]%).
